Results: ChEMBL document CHEMBL1201862, “PubChem BioAssay data set” (2004)
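Growth conditions: 96-well plates. Treatment: test compound, 48 hours, 5 concentrations. Analysis: linear interpolation between bracketing concentrations; unreached endpoints set to highest concentration. At the GI50, growth is halved.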 Activity calls are given as the source filed them. Rule as the data show it: active = GI50 up to about 1.1 µM and inactive = higher.

Experiments:
Assay in all cases: NCI tumour cell line growth inhibition, 48 h
SK-OV-3 = tested on: SK-OV-3
HOP-62 = tested on: HOP-62
SNB-78 = tested on: SNB-78
CCRF-CEM = tested on: CCRF-CEM
TK-10 = tested on: TK-10
U-251 = tested on: U-251
786-0 = tested on: 786-0
SK-MEL-2 = tested on: SK-MEL-2
M14 = tested on: M14
RXF 393 = tested on: RXF 393
SF-268 = tested on: SF-268
NCI-H23 = tested on: NCI-H23
UO-31 = tested on: UO-31
OVCAR-3 = tested on: OVCAR-3
MDA-N = tested on: MDA-N
PC-3 = tested on: PC-3
MDA-MB-435 = tested on: MDA-MB-435
BT-549 = tested on: BT-549
MCF7 = tested on: MCF7
T47D = tested on: T47D

Structure (SMILES)	GI50 (SK-OV-3)	GI50 (HOP-62)	GI50 (SNB-78)	GI50 (CCRF-CEM)	GI50 (TK-10)	GI50 (U-251)	GI50 (786-0)	GI50 (SK-MEL-2)	GI50 (M14)	GI50 (RXF 393)	GI50 (SF-268)	GI50 (NCI-H23)	GI50 (UO-31)	GI50 (OVCAR-3)	GI50 (MDA-N)	GI50 (PC-3)	GI50 (MDA-MB-435)	GI50 (BT-549)	GI50 (MCF7)	GI50 (T47D)
Cc1cc2c(C)n(Cc3ccc(Cl)cc3Cl)nc2c(C#N)c1C	19.1 µM (inactive)	20 µM (inactive)	24.4 µM (inactive)	> 100 µM (inactive)	23.7 µM (inactive)	22.1 µM (inactive)	13.6 µM (inactive)	> 61.4 µM (inactive)	49 µM (inactive)	15.3 µM (inactive)	32.3 µM (inactive)	41.7 µM (inactive)	52.8 µM (inactive)	34.7 µM (inactive)	–	–	–	–	–	–
Clc1cccc(C2SCc3nc4ccccc4n32)c1 (centres undefined)	21.6 µM (inactive)	20 µM (inactive)	22.1 µM (inactive)	27.4 µM (inactive)	25.6 µM (inactive)	16 µM (inactive)	> 10 µM (inactive)	–	19.7 µM (inactive)	15 µM (inactive)	28.8 µM (inactive)	18.3 µM (inactive)	–	14.4 µM (inactive)	–	–	–	–	–	–
COc1ccc(OC)c(NC(=O)C(=O)C(C(C)=O)c2nc3ccc(Cl)cc3nc2O)c1 (centres undefined)	> 50 µM (inactive)	> 50 µM (inactive)	> 50 µM (inactive)	> 5 µM (inactive)	> 50 µM (inactive)	> 50 µM (inactive)	> 50 µM (inactive)	> 50 µM (inactive)	> 50 µM (inactive)	> 50 µM (inactive)	> 50 µM (inactive)	> 50 µM (inactive)	> 50 µM (inactive)	> 50 µM (inactive)	–	–	–	–	–	–
COc1ccc(/C=C(\C(=C/c2ccc(OC)cc2)[N+](=O)[O-])[N+](=O)[O-])cc1	16.6 µM (inactive)	5.47 µM (inactive)	–	0.429 µM (active)	5.71 µM (inactive)	2.58 µM (inactive)	2.04 µM (inactive)	11.6 µM (inactive)	4.11 µM (inactive)	1.54 µM (inactive)	4.09 µM (inactive)	4.46 µM (inactive)	4.53 µM (inactive)	12.8 µM (inactive)	3.14 µM (inactive)	5.85 µM (inactive)	3.4 µM (inactive)	6.1 µM (inactive)	6.31 µM (inactive)	8.83 µM (inactive)
COC1(OC)CC2CCCCC2=C(C)N1S(=O)(=O)c1ccccc1 (centres undefined)	> 100 µM (inactive)	> 100 µM (inactive)	> 100 µM (inactive)	> 100 µM (inactive)	> 100 µM (inactive)	> 100 µM (inactive)	> 100 µM (inactive)	> 100 µM (inactive)	> 100 µM (inactive)	> 100 µM (inactive)	> 100 µM (inactive)	> 100 µM (inactive)	> 100 µM (inactive)	> 100 µM (inactive)	–	–	–	–	–	–
[N-]=[N+]=Nc1nnc(CCCCc2nnc(N=[N+]=[N-])o2)o1	> 100 µM (inactive)	> 100 µM (inactive)	> 100 µM (inactive)	> 100 µM (inactive)	> 100 µM (inactive)	> 100 µM (inactive)	> 100 µM (inactive)	> 100 µM (inactive)	> 100 µM (inactive)	> 100 µM (inactive)	> 100 µM (inactive)	> 100 µM (inactive)	> 100 µM (inactive)	> 100 µM (inactive)	–	–	–	–	–	–
COC(=O)/C=C(C)/C=C/C1OC(C)OCC1O (centres undefined)	> 100 µM (inactive)	> 100 µM (inactive)	> 100 µM (inactive)	> 100 µM (inactive)	> 100 µM (inactive)	> 100 µM (inactive)	> 100 µM (inactive)	–	> 100 µM (inactive)	–	> 100 µM (inactive)	> 100 µM (inactive)	> 100 µM (inactive)	> 100 µM (inactive)	–	–	–	–	–	–
COC(=O)C(=O)C(C(=O)C(=O)Nc1cc([N+](=O)[O-])ccc1[N+](=O)[O-])c1nc2ccc(C(=O)c3ccccc3)cc2nc1O (centres undefined)	34.2 µM (inactive)	44.5 µM (inactive)	19.2 µM (inactive)	25.2 µM (inactive)	–	33.4 µM (inactive)	95.3 µM (inactive)	37.2 µM (inactive)	33.1 µM (inactive)	–	47.6 µM (inactive)	25.2 µM (inactive)	17.4 µM (inactive)	39.2 µM (inactive)	–	–	–	–	–	–
Cc1csc2nc(-c3ccncc3)cn12	> 100 µM (inactive)	> 100 µM (inactive)	> 100 µM (inactive)	> 42.1 µM (inactive)	> 100 µM (inactive)	> 46.9 µM (inactive)	15.8 µM (inactive)	> 100 µM (inactive)	> 68.2 µM (inactive)	–	> 69.7 µM (inactive)	> 100 µM (inactive)	> 100 µM (inactive)	> 100 µM (inactive)	–	–	–	–	–	–
